This is an account of results in paper PMC9196953 (Drug development research, 1999).

For test [1], the target named is T1, rat A2A receptors (Rattus norvegicus, UniProt P30543).
T1 construct: to A2A receptors from rat striatal membranes; from tissue; host or cells: rat striatal membranes
In words: Displacement of [3H]CGS 21680 binding to A2A receptors in rat striatal membranes. The note with it: for Ki: read-out: Ki rA2A. As for the experimental part: (§1) All nonradioactive compounds were initially dissolved in DMSO and diluted with buffer to the final concentration, where the amount of DMSO never exceeded 2%. Incubations were terminated by rapid filtration over Whatman GF/B filters using a Brandell cell harvester. The tubes were rinsed three times with 3 mL buffer each.
(§2) At least six different concentrations of competitor, spanning 3 orders of magnitude adjusted appropriately for the IC50 value of each compound, were used. IC50 values, calculated with the nonlinear regression method implemented in Graph-Pad Prism (San Diego, CA) were converted to apparent Ki values as described by [Linden [1982]]. Hill coefficients of the tested compounds were in the range of 0.8–1.1.
(§3) At A2B receptors, two radioligand binding assays (Table 1) were used. Ki values of xanthine derivatives were determined in displacement of binding of the non-selective radioligands […], 8 (4-(2-[7-amino-2-{furyl}{1,2,4}triazolo{2,3-a}{1,3,5}tr nzyl)-8-phenyloxyacetate-1-propyl-xanthine), at human A2B receptors expressed in HEK-293 cell membranes [[Linden and Jacobson, 1998]]. In order to evaluate selectivity, selected derivatives were subjected to standard binding assays at A1, A2A, and A3 receptors. The initial screening utilized rat brain A1/A2A receptors (with radioligands [^3H]R-PIA and [^3H]CGS-21680), and selected compounds were examined at the recombinant human subtypes (Table 1), using [^3H]CPX ([^3H]8-cyclopentyl-1,3-dipropylxanthine) and ^125I-ZM 241385, ^125I-4-(2-[7-amino-2-[2-furyl][1,2,4]triazolo[2,3-a][1,3,5]triazin-5-yl-amino]ethyl)phenol) [[Palmer et al., 1996]].

The target of test [2] is T2, human A2B receptors (Homo sapiens, UniProt P29275).
T2 construct: expressed in transfected cells; host or cells: HEK-293
T2 sequence (P29275 1-332): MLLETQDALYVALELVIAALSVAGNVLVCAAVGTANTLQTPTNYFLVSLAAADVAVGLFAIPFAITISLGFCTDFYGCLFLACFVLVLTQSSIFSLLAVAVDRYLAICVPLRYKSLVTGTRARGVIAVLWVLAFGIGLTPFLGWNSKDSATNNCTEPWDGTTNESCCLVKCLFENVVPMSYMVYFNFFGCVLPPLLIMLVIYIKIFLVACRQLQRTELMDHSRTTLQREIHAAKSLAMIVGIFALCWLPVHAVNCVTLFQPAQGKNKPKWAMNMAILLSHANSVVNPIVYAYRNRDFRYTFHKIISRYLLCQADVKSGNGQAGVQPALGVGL
In words: Binding at human A2B receptors expressed in HEK-293 cells vs [3H]ZM241385. The note with it: for rA1/hA2B: ratio of Ki rat A1 to Ki human A2B. As for the experimental part:
The plasmid was amplified in competent JM109 cells and plasmid DNA isolated using Wizard Megaprep columns (Promega Corp., Madison, WI).
Colonies were selected by growth of cells in 0.6 mg/mL G418. Transfected cells were maintained in DMEM supplemented with Hams F12 nutrient mixture (1/1), 10% newborn calf serum, 2 mM glutamine, and containing 50 IU/mL penicillin, 50 μg/mL streptomycin, and 0.2 mg/mL Geneticin (G418, Boehringer Mannheim, Indianapolis, IN).
Confluent monolayers of HEK-A2B cells were washed with PBS followed by ice-cold Buffer A (10 mM HEPES, 10 mM EDTA, pH 7.4) with protease inhibitors ([…] benzamidine, […], and […] of each aprotinin, pepstatin, and leupeptin). The cells were homogenized in a Polytron (Brinkmann) for 20 sec, centrifuged at 30,000g, and the pellets washed twice with buffer HE (10 mM HEPES, 1 mM EDTA, pH 7.4 with protease inhibitors). The final pellet was resuspended in buffer HE, supplemented with 10% sucrose and frozen in aliquots at −80°C. For binding assays, membranes were thawed and diluted 5–10-fold with HE to a final protein concentration of approximately 1 mg/mL. […] After incubating for 20 min at room temperature, 50 mL of 10 mg/mL Na-metabisulfite in water was added the quench the reaction. The reaction products were applied to a C18 HPLC column using 4 mM phosphate, pH 6.0/methanol. […] The incubation time was 3 h at 21°C. […] Membranes were filtered on Whatman GF/C filters using a Brandell cell harvester (Gaithersburg, MD) and washed three times over 15–20 sec with ice-cold buffer (10 mM Tris, 1 mM MgCl2, pH 7.4). […] Data from replicate experiments are tabulated as means ± SEM.
At A2B receptors, two radioligand binding assays (Table 1) were used. […] In order to evaluate selectivity, selected derivatives were subjected to standard binding assays at A1, A2A, and A3 receptors.

Test [3] deals with T3, human A2A receptors (Homo sapiens, UniProt P29274).
T3 construct: expressed in transfected cells; host or cells: HEK-293
T3 sequence (P29274 whole entry): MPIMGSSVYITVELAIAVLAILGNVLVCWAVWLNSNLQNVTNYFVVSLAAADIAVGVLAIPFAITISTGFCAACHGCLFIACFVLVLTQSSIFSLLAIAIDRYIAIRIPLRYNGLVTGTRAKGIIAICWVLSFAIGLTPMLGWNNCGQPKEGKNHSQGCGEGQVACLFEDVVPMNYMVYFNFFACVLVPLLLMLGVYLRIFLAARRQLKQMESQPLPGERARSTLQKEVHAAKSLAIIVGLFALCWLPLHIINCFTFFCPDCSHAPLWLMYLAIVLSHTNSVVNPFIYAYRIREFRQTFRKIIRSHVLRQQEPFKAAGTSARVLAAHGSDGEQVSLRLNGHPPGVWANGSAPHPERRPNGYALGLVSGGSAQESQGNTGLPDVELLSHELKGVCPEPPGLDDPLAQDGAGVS
In words: Binding at recombinant human A2A receptors expressed in HEK-293 cells vs [125I]ZM241385. The conditions noted are these: recombinant human A2A in HEK-293 cells, read-out: Ki A2A (h) (converted). As for the experimental part: as §1, §2, §3

Test [4] deals with T4, human A1 receptors (Homo sapiens, UniProt P30542).
T4 construct: expressed in transfected cells; host or cells: HEK-293
T4 sequence (P30542 1-326): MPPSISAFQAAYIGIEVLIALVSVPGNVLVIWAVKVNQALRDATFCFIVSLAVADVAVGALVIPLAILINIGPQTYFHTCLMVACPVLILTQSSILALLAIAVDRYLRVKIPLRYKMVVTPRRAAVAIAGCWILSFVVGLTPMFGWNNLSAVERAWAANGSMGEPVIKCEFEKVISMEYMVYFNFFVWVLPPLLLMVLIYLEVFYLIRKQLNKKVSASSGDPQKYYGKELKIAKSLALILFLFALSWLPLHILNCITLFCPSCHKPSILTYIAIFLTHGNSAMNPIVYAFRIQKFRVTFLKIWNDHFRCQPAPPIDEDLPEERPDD
In words: Binding at recombinant human A1 receptors expressed in HEK-293 cells vs [3H]CPX. The note with it: recombinant human A1 in HEK-293 cells. As for the experimental part:
as §1, §2, §3

Setting [5] is: HEK-293 cells, vs [3H]ZM241385, read-out: Ki hA2B.

Structures are written as SMILES. Read-outs that look alike come from different tables or passages of the source.

T1 sequence (P30543 whole entry): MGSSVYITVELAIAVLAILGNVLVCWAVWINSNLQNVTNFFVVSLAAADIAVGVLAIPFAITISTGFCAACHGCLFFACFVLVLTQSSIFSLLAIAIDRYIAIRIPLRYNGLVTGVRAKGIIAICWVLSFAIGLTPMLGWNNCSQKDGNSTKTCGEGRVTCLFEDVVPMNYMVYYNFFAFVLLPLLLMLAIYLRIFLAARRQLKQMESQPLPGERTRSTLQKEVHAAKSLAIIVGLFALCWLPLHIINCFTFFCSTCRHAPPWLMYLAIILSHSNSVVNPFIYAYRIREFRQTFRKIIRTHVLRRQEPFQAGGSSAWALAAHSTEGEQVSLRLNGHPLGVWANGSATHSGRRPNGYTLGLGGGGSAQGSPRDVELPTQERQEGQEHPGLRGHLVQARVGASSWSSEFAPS

As to `CCCn1c(=O)c2[nH]c(-c3ccc(OCC(=O)OCC)cc3)nc2n(CCC)c1=O` [Compound 4b], the Ki in test [1] was 128 ± 15 nM; in test [2] (setting [5]), 18.7 ± 0.5 nM; in test [3], 342 nM; in test [4], 203 nM. Besides, the rA1/hA2B in test [2] was determined as 2.8.

With `CCCn1c(=O)c2[nH]c(-c3ccc(OCC(=O)NNC(C)=O)cc3)nc2n(CCC)c1=O` [Compound 4e, 8-[4-[(Carboxymethyl)oxy]phenyl]-1,3-di-(n-propyl)xanthine N-Acetylhydrazide], the Ki was 227 ± 64 nM in test [1], 65.4 ± 6.5 nM in test [2] (setting [5]), 186 nM in test [3] and 125 nM in test [4]. Further, the rA1/hA2B in test [2] is recorded as 0.10.

Take `CCCn1c(=O)c2[nH]c(-c3ccc(OCC(=O)NNC(=O)CCC(=O)O)cc3)nc2n(CCC)c1=O` [Compound 9, 8-[4-[(Carboxymethyl)oxy]phenyl]-1,3-di-(n-propyl)xanthine N-[(3-Carboxy)-n-propionyl]hydrazide]: the Ki in test [1] is 174 ± 32 nM; in test [2] (setting [5]), 116 ± 10 nM; in test [3] it was 795 nM; in test [4], 219 nM.

`CCCn1c(=O)c2[nH]c(-c3ccc(OCC(=O)NN4C(=O)C(C)=C(C)C4=O)cc3)nc2n(CCC)c1=O` [Compound 14, 8-[4-[(Carboxymethyl)oxy]phenyl]-1,3-di-(n-propyl)xanthine N,N-[(1,2-Dimethyl)maleyl]hydrazide]: the Ki in test [1] is 126 ± 41 nM; in test [2] (setting [5]), 19.4 ± 6.2 nM; in test [2] (rounded values given in text, read-out: Ki at human A2B receptors), 19 nM; in test [3], 1970 nM; in test [4], 3030 nM. In addition, the “selectivity for human A2B vs. human A1 receptors” value in test [2] (human A2B vs human A1) is recorded as 160 fold. Also, the “selectivity for human A2B vs. human A2A receptors” value in test [2] (human A2B vs human A2A) is 100 fold. Further, the “selectivity for human A2B vs. human A3 receptors” value in test [2] (human A2B vs human A3) is 35 fold. The rA1/hA2B in test [2] is on record as 0.57.

Consider `CCCn1c(=O)[nH]c(=O)c2[nH]c(-c3ccc(OCC(=O)NN4C(=O)C(C)=C(C)C4=O)cc3)nc21` [Compound 15, 8-[4-[(Carboxymethyl)oxy]phenyl]-1H-3-(n-propyl)xanthine N,N-[(1,2-Dimethyl)maleyl]hydrazide], for which the “% displacement rA2A” value in test [1] (rat striatal membranes, [3H]CGS 21680, at 10^−4) came out at 36 ± 4%. In addition, the Ki in test [2] (setting [5]) was 1800 nM; in test [3], 5480 nM; in test [4] it was 8080 nM. For the same molecule, in test [2], the rA1/hA2B was determined as 2.0.

Take `CCCn1c(=O)c2[nH]c(-c3ccc(OCC(=O)NN4C(=O)c5ccccc5C4=O)cc3)nc2n(CCC)c1=O` [Compound 21, 8-[4-[(Carboxymethyl)oxy]phenyl]-1,3-di-(n-propyl)xanthine N,N-Phthaloylhydrazide]: the Ki is 392 ± 117 nM in test [1], 64.4 ± 0.8 nM in test [2] (setting [5]), 359 nM in test [3] and 210 nM in test [4]. Also, in test [2], the rA1/hA2B was 0.41.
